Each structure is given as a SMILES string.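 Grown in 96-well plates, cells were treated for 48 hours with each compound at five concentrations. Insufficient inhibition: endpoint recorded as highest concentration tested. At the TGI there is no net growth.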 A value given as a limit tells only on which side of the number the result lay.

For the first assay, the system named is OVCAR-8 ovarian. The experiment in a line: inhibition of tumour cell growth, NCI panel, 48 h.
`O=C(c1cccs1)N(C(=S)N1CCN(c2ccccn2)CC1)c1ccccc1` yielded a TGI of more than 100 µM.
Still for that read-out and setting: next, `CNS(=O)(=O)NN(C)S(=O)(=O)c1ccccc1`: more than 100 µM.
`CCCCNc1nc(C#N)c(N)s1` gave a TGI of more than 100 µM.
With `CC(=O)OC1COC(n2c(O)c(N=NC(N)=S)c3cc(Br)ccc32)C(OC(C)=O)C1OC(C)=O` (centres undefined), the TGI is more than 100 µM.
On the same count and under the same terms, then `O=C(CSc1nnc(-c2ccc(N=Cc3ccc(Cl)cc3)cc2)o1)Nc1ccccc1[N+](=O)[O-]`, with more than 100 µM.

In another assay the test system is HCT-15 colon. The assay is described as follows: inhibition of tumour cell growth, NCI panel, 48 h.
`O=c1[nH]c2cc([N+](=O)[O-])ccc2nc1/C(=N/Nc1ccccc1)C(O)c1ccccc1Cl` (centres undefined): the TGI was 36.3 µM.
`C=Cc1ccc(C)[n+](C[Si](C)(C)O[Si](C)(C)C)c1` came in with a TGI of more than 100 µM.
Still for that read-out and setting: next, `O=C(c1cccs1)N(C(=S)N1CCN(c2ccccn2)CC1)c1ccccc1`: more than 100 µM.
The same measure, in the same setting: next, `CNS(=O)(=O)NN(C)S(=O)(=O)c1ccccc1`: more than 100 µM; `CCCCNc1nc(C#N)c(N)s1`: more than 100 µM.
For `Cn1cc2ccccc2c1-c1nc(F)nc(F)n1`, the TGI was more than 100 µM.
`CC(=O)OC1COC(n2c(O)c(N=NC(N)=S)c3cc(Br)ccc32)C(OC(C)=O)C1OC(C)=O` (centres undefined) returned a TGI of more than 100 µM.
The same measure, in the same setting: next, `O=C(CSc1nnc(-c2ccc(N=Cc3ccc(Cl)cc3)cc2)o1)Nc1ccccc1[N+](=O)[O-]`: more than 100 µM.

The next assay has as its system NCI-H522 lung. The assay is described as follows: inhibition of tumour cell growth, NCI panel, 48 h.
In turn, `O=c1[nH]c2cc([N+](=O)[O-])ccc2nc1/C(=N/Nc1ccccc1)C(O)c1ccccc1Cl` (centres undefined) registered a TGI of more than 100 µM.
On to `C=Cc1ccc(C)[n+](C[Si](C)(C)O[Si](C)(C)C)c1`, for which the TGI is more than 100 µM.
Same read-out and setting: next, `O=C(c1cccs1)N(C(=S)N1CCN(c2ccccn2)CC1)c1ccccc1`: more than 100 µM.
Same read-out and setting: then `CNS(=O)(=O)NN(C)S(=O)(=O)c1ccccc1`, with more than 100 µM; and `CCCCNc1nc(C#N)c(N)s1`, with more than 100 µM; and `Cn1cc2ccccc2c1-c1nc(F)nc(F)n1`, with more than 100 µM.
On the same count and under the same terms, next, `CC(=O)OC1COC(n2c(O)c(N=NC(N)=S)c3cc(Br)ccc32)C(OC(C)=O)C1OC(C)=O` (centres undefined): more than 100 µM; `O=C(CSc1nnc(-c2ccc(N=Cc3ccc(Cl)cc3)cc2)o1)Nc1ccccc1[N+](=O)[O-]`: more than 100 µM.

The next assay concerns SNB-19 CNS. The assay is described as follows: inhibition of tumour cell growth, NCI panel, 48 h.
The compound `O=c1[nH]c2cc([N+](=O)[O-])ccc2nc1/C(=N/Nc1ccccc1)C(O)c1ccccc1Cl` (centres undefined) gave a TGI of more than 100 µM.
Still for that read-out and setting: next, `C=Cc1ccc(C)[n+](C[Si](C)(C)O[Si](C)(C)C)c1`: more than 100 µM; `O=C(c1cccs1)N(C(=S)N1CCN(c2ccccn2)CC1)c1ccccc1`: more than 100 µM; `CNS(=O)(=O)NN(C)S(=O)(=O)c1ccccc1`: more than 100 µM.
`CCCCNc1nc(C#N)c(N)s1`: the TGI is more than 100 µM.
The same measure, in the same setting: then `Cn1cc2ccccc2c1-c1nc(F)nc(F)n1`, with more than 100 µM; and `CC(=O)OC1COC(n2c(O)c(N=NC(N)=S)c3cc(Br)ccc32)C(OC(C)=O)C1OC(C)=O` (centres undefined), with more than 100 µM; and `O=C(CSc1nnc(-c2ccc(N=Cc3ccc(Cl)cc3)cc2)o1)Nc1ccccc1[N+](=O)[O-]`, with more than 100 µM.

A further assay deals with HCT-116 colon. The assay is described as follows: inhibition of tumour cell growth, NCI panel, 48 h.
Compound `O=c1[nH]c2cc([N+](=O)[O-])ccc2nc1/C(=N/Nc1ccccc1)C(O)c1ccccc1Cl` (centres undefined) had a TGI of more than 100 µM.
The compound `C=Cc1ccc(C)[n+](C[Si](C)(C)O[Si](C)(C)C)c1` registered a TGI of more than 100 µM.
Still for that read-out and setting: then `O=C(c1cccs1)N(C(=S)N1CCN(c2ccccn2)CC1)c1ccccc1`, with more than 100 µM; and `CNS(=O)(=O)NN(C)S(=O)(=O)c1ccccc1`, with more than 100 µM.
Still for that read-out and setting: then `CCCCNc1nc(C#N)c(N)s1`, with more than 100 µM.
Turning to `Cn1cc2ccccc2c1-c1nc(F)nc(F)n1`, the TGI is more than 100 µM.
The same measure, in the same setting: then `CC(=O)OC1COC(n2c(O)c(N=NC(N)=S)c3cc(Br)ccc32)C(OC(C)=O)C1OC(C)=O` (centres undefined), with more than 100 µM.
In the case of `O=C(CSc1nnc(-c2ccc(N=Cc3ccc(Cl)cc3)cc2)o1)Nc1ccccc1[N+](=O)[O-]`, the TGI is more than 100 µM.

The subject of another assay is NCI-H460 lung. The assay is described as follows: inhibition of tumour cell growth, NCI panel, 48 h.
Consider `O=c1[nH]c2cc([N+](=O)[O-])ccc2nc1/C(=N/Nc1ccccc1)C(O)c1ccccc1Cl` (centres undefined), for which the TGI is more than 100 µM.
The same measure, in the same setting: then `O=C(c1cccs1)N(C(=S)N1CCN(c2ccccn2)CC1)c1ccccc1`, with more than 100 µM.
Same read-out and setting: then `CNS(=O)(=O)NN(C)S(=O)(=O)c1ccccc1`, with more than 100 µM; and `CCCCNc1nc(C#N)c(N)s1`, with more than 100 µM.
Same read-out and setting: then `Cn1cc2ccccc2c1-c1nc(F)nc(F)n1`, with more than 100 µM.
Compound `CC(=O)OC1COC(n2c(O)c(N=NC(N)=S)c3cc(Br)ccc32)C(OC(C)=O)C1OC(C)=O` (centres undefined) showed a TGI of more than 100 µM.
Same read-out and setting: next, `O=C(CSc1nnc(-c2ccc(N=Cc3ccc(Cl)cc3)cc2)o1)Nc1ccccc1[N+](=O)[O-]`: more than 100 µM.

For the next assay, the system named is COLO 205 colon. The assay is described as follows: inhibition of tumour cell growth, NCI panel, 48 h.
`O=c1[nH]c2cc([N+](=O)[O-])ccc2nc1/C(=N/Nc1ccccc1)C(O)c1ccccc1Cl` (centres undefined) came in with a TGI of more than 100 µM.
The same measure, in the same setting: next, `C=Cc1ccc(C)[n+](C[Si](C)(C)O[Si](C)(C)C)c1`: more than 100 µM.
`O=C(c1cccs1)N(C(=S)N1CCN(c2ccccn2)CC1)c1ccccc1` came in with a TGI of more than 100 µM.
The compound `CNS(=O)(=O)NN(C)S(=O)(=O)c1ccccc1` had a TGI of more than 100 µM.
The same measure, in the same setting: next, `CCCCNc1nc(C#N)c(N)s1`: more than 100 µM.
The same measure, in the same setting: then `Cn1cc2ccccc2c1-c1nc(F)nc(F)n1`, with more than 100 µM.
On the same count and under the same terms, next, `CC(=O)OC1COC(n2c(O)c(N=NC(N)=S)c3cc(Br)ccc32)C(OC(C)=O)C1OC(C)=O` (centres undefined): more than 100 µM; `O=C(CSc1nnc(-c2ccc(N=Cc3ccc(Cl)cc3)cc2)o1)Nc1ccccc1[N+](=O)[O-]`: more than 100 µM.

The test system of the next assay is SK-MEL-28 melanoma. The experiment in a line: inhibition of tumour cell growth, NCI panel, 48 h.
`O=c1[nH]c2cc([N+](=O)[O-])ccc2nc1/C(=N/Nc1ccccc1)C(O)c1ccccc1Cl` (centres undefined) came in with a TGI of more than 100 µM.
Still for that read-out and setting: then `C=Cc1ccc(C)[n+](C[Si](C)(C)O[Si](C)(C)C)c1`, with more than 100 µM; and `O=C(c1cccs1)N(C(=S)N1CCN(c2ccccn2)CC1)c1ccccc1`, with more than 100 µM.
On the same count and under the same terms, then `CCCCNc1nc(C#N)c(N)s1`, with more than 100 µM; and `Cn1cc2ccccc2c1-c1nc(F)nc(F)n1`, with more than 100 µM; and `CC(=O)OC1COC(n2c(O)c(N=NC(N)=S)c3cc(Br)ccc32)C(OC(C)=O)C1OC(C)=O` (centres undefined), with more than 100 µM.
The same measure, in the same setting: next, `O=C(CSc1nnc(-c2ccc(N=Cc3ccc(Cl)cc3)cc2)o1)Nc1ccccc1[N+](=O)[O-]`: more than 100 µM.

(Values after PubChem BioAssay (NCI).)
